# Laboratory results reported in PubChem BioAssay (NCI).
#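 The compound was tested at five concentrations on cells cultured in 96-well plates, with a 48-hour exposure period. TGI marks complete inhibition of growth.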
# Experiments:
# Assay in all cases: NCI anticancer screen, dose series, 48 h
# CCRF-CEM leukemia = test system: CCRF-CEM leukemia
# COLO 205 colon = test system: COLO 205 colon
# DU-145 prostate = test system: DU-145 prostate
# HCT-116 colon = test system: HCT-116 colon
# HT29 colon = test system: HT29 colon
# MOLT-4 leukemia = test system: MOLT-4 leukemia
# OVCAR-3 ovarian = test system: OVCAR-3 ovarian
# OVCAR-4 ovarian = test system: OVCAR-4 ovarian
# OVCAR-5 ovarian = test system: OVCAR-5 ovarian
# RPMI-8226 leukemia = test system: RPMI-8226 leukemia
# RXF 393 renal = test system: RXF 393 renal
# SR leukemia = test system: SR leukemia
# SW-620 colon = test system: SW-620 colon
# UO-31 renal = test system: UO-31 renal
# HS 578T breast = test system: HS 578T breast
# UACC-62 melanoma = test system: UACC-62 melanoma
SMILES,TGI (CCRF-CEM leukemia) [µM],TGI (COLO 205 colon) [µM],TGI (DU-145 prostate) [µM],TGI (HCT-116 colon) [µM],TGI (HT29 colon) [µM],TGI (MOLT-4 leukemia) [µM],TGI (OVCAR-3 ovarian) [µM],TGI (OVCAR-4 ovarian) [µM],TGI (OVCAR-5 ovarian) [µM],TGI (RPMI-8226 leukemia) [µM],TGI (RXF 393 renal) [µM],TGI (SR leukemia) [µM],TGI (SW-620 colon) [µM],TGI (UO-31 renal) [µM],TGI (HS 578T breast) [µM],TGI (UACC-62 melanoma) [µM]
CCOC(=O)CCCc1cc(=O)c2c(C)c3[nH]c4ccc(Cl)cc4c3c(C)c2[nH]1,> 100,> 100,57.2,> 100,53.8,> 100,34.4,59.1,> 100,> 100,27.1,> 100,> 100,45.4,–,–
c1ccc(C2(c3cc4ccccc4[nH]3)OCCO2)nc1,> 100,> 100,> 100,> 100,> 100,–,> 100,> 100,> 100,–,> 100,–,> 100,> 100,> 100,> 100
CC(=O)OC[C@@]1(C)[C@@H]2[C@@H]3[C@@]4(CO[C@]3(C)C(=O)[C@@]3(OC(C)=O)C[C@H](C)[C@H](OC(C)=O)[C@@H]3[C@H]4OC(C)=O)[C@H](OC(=O)c3ccccc3)C[C@@H]21,> 100,> 100,> 100,> 100,> 100,–,> 100,> 100,> 100,> 100,> 100,–,> 100,> 100,> 100,> 100
COC(=O)c1ccccc1C1CN=NC12Cc1cc3c(cc1C2=O)CCC3 (stereo unspecified),> 100,> 100,> 100,> 100,> 100,> 100,> 100,> 100,> 100,–,> 100,–,> 100,> 100,> 100,> 100
Cc1c(N)c(C#N)c2n(C)c3ncccc3n2c1=O,> 100,> 100,–,> 100,> 100,> 100,> 100,> 100,–,> 100,> 100,> 100,> 100,> 100,–,> 100
COc1ccc(NCc2cccc3c(=O)c4ccc(Cl)cc4oc23)cc1,> 100,> 100,–,> 100,–,> 100,> 100,> 100,> 100,> 100,–,> 100,> 100,> 100,–,> 100
CCN(CC)CC(C(C)=O)C(c1ccccc1)c1c(O)c2ccccc2oc1=O (stereo unspecified),> 100,> 100,–,> 100,> 100,> 100,> 100,> 100,> 100,> 100,> 100,> 100,> 100,> 100,–,> 100
Cn1c(=O)oc2cc(C(O)CN3CCN(Cc4ccc5c(c4)OCO5)CC3)ccc21 (stereo unspecified),> 100,> 100,> 100,> 100,> 100,> 100,> 100,> 100,> 100,–,> 100,> 100,> 100,> 100,–,> 100
C#CCNCC(=O)O,> 100,> 100,> 100,> 100,> 100,> 100,> 100,> 100,> 100,> 100,> 100,–,> 100,> 100,> 100,> 100
O=C(c1ccc(Cl)c(Cl)c1)N(C(=S)OC12CC3CC(CC(C3)C1)C2)c1ccccc1,> 100,29.4,> 100,68.8,> 100,–,> 100,> 100,> 100,–,> 100,–,> 100,64.3,> 100,98.5
CC12CCC(=O)N1[C@@H](c1ccccc1)[C@@H](c1ccccc1)O2 (stereo partly specified),> 100,> 100,–,> 100,> 100,> 100,> 100,> 100,> 100,–,–,–,> 100,> 100,–,> 100
Cc1cc2c(cc1Cl)SC(NNC(=O)c1ccccc1)=NS2(=O)=O,> 10,> 10,> 10,> 10,> 10,> 10,> 10,> 10,> 10,> 10,> 10,–,> 10,–,> 10,> 10
CC(=O)OC1CCn2c1nc1c2C(=O)C=C(N2CC2)C1=O (stereo unspecified),1.17,0.219,12.7,0.781,2.08,0.208,0.546,0.231,2.61,1.37,0.241,0.346,0.146,0.35,–,0.214
CC(=O)Nc1ccc2cc(C#N)c(=O)[nH]c2n1,–,> 100,–,> 100,–,> 100,> 100,> 100,> 100,> 100,> 100,–,> 100,> 100,–,–
S=c1[nH]nc(COc2ccc(Cl)cc2)n1-c1ccccc1,> 100,> 100,> 100,> 100,> 100,> 100,> 100,> 100,> 100,–,> 100,–,> 100,> 100,–,> 100
[N-]=[N+]=NC1(Cc2ccccc2)C(=O)Nc2ccccc2C1=O (stereo unspecified),> 100,> 100,–,> 100,> 100,> 100,> 100,> 100,> 100,–,–,> 100,> 100,> 100,–,> 100
